According to the SangsterLogP compilation:

Structure (SMILES) | logP
S=C=Nc1cccc(Cl)c1 | 3.36
N#Cc1cccc(N=C=S)c1 | 3.13
Oc1cccc(N=C=S)c1 | 3.23
COc1cccc(N=C=S)c1 | 3.68
S=C=Nc1ccc(I)cc1 | 4.22
Cc1ccc(N=C=S)cc1 | 3.9
S=C=Nc1cccc(Br)c1 | 4.12
CC(C)CN=C=S | 2.82
CCCCN=C=S | 2.92
CCC(C)N=C=S (stereo not drawn) | 2.81
O=C(O)c1cccc(N=C=S)c1 | 2.4
S=C=Nc1ccc(Cl)cc1 | 3.91
N#Cc1ccc(N=C=S)cc1 | 2.65
O=[N+]([O-])c1ccc(N=C=S)cc1 | 3.55
CN(C)c1ccc(N=C=S)cc1 | 3.96
COc1ccc(N=C=S)cc1 | 3.58
O=C(O)c1ccc(N=C=S)cc1 | 2.44
CN=C=S | 0.94
